Experimental data published in article PMC3511402, “Structural and Biochemical Studies on ATP Binding and Hydrolysis by the Escherichia coli RNA Chaperone Hfq” (PLoS ONE, 2012).

Legend:
[1] = target: T1, Hfq65 (Escherichia coli, UniProt P0A6X3); experiment: X-ray crystal structure, […] Å; type: binding; settings: distal-face R-sites, four of six sites occupied; ATP 1:1 per subunit; Hepes pH ~7.5
T1 construct: gene hfq; C-terminally truncated, aa 1-65; plasmid pUHfq65 expressed in E. coli hfq- strain AM111F'; untagged; hexamer

[2] = target: T2, full length E. coli Hfq (Escherichia coli, UniProt P0A6X3); experiment: EMSA competition with […]'-labelled poly(A)[…] RNA; type: binding; settings: 5 nM poly(A)27, 40 nM Hfq hexamer, pH 7.5, 2 mM MgOAc, room temperature; distal site competition
T2 construct: full length, no added His tag (native histidines); plasmid pUH5 in E. coli AM111F' (printed for the ATPase preparations); hexamer
T2 sequence (P0A6X3 2-102): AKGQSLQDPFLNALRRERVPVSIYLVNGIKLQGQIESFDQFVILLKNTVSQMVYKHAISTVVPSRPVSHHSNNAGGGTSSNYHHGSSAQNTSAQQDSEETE

T1 sequence (P0A6X3 1-65): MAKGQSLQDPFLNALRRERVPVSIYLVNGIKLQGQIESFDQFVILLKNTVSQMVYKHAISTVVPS

Structure (SMILES): Nc1ncnc2c1ncn2[C@@H]1O[C@H](COP(=O)(O)OP(=O)(O)OP(=O)(O)O)[C@@H](O)[C@H]1O [ATP]
- X-ray crystal structure, 2.15 Å [1]: electron density corresponding to the ATP molecules was observed in four out of six R-sites
- % RNA released at 10 mM ATP [2]: ~ 50%
